# Measured values taken from publication PMC9730833, “Targeting OCT2 with Duloxetine to Prevent Oxaliplatin-induced Peripheral Neurotoxicity” (Cancer Research Communications, 2022).
# Experiments:
# Type in all cases: cell-based
# OCT2 (mOCT2) [1] = target: T1, OCT2 (mOCT2) (Mus musculus, UniProt O70577); test: fluorescent substrate uptake in cells overexpressing mOCT2; uptake impaired in OCT1/[…](−/−) satellite glial cells
# T1 construct: gene Slc22a2
# T1 sequence (O70577 1-553): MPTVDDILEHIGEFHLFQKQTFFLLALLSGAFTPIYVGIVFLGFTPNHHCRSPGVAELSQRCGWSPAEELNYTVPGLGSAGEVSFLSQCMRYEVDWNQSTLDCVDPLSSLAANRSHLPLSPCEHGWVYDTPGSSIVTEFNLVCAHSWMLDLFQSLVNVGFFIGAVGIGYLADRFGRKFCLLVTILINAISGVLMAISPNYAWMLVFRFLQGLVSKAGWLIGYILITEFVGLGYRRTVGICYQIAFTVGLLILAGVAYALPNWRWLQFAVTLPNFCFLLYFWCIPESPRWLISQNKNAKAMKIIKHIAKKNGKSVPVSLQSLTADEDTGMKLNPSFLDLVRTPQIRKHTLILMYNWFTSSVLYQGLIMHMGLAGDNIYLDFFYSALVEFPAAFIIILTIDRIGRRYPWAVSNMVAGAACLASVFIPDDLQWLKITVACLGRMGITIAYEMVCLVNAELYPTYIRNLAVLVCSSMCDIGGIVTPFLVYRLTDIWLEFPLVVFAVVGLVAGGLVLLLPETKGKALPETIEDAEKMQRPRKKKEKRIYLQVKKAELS
# OCT2 (hOCT2) [2] = target: T2, OCT2 (hOCT2) (Homo sapiens, UniProt O15244); test: fluorescent substrate uptake in HEK293 and Hela cells overexpressing hOCT2
# T2 construct: gene SLC22A2
# T2 sequence (O15244 1-555): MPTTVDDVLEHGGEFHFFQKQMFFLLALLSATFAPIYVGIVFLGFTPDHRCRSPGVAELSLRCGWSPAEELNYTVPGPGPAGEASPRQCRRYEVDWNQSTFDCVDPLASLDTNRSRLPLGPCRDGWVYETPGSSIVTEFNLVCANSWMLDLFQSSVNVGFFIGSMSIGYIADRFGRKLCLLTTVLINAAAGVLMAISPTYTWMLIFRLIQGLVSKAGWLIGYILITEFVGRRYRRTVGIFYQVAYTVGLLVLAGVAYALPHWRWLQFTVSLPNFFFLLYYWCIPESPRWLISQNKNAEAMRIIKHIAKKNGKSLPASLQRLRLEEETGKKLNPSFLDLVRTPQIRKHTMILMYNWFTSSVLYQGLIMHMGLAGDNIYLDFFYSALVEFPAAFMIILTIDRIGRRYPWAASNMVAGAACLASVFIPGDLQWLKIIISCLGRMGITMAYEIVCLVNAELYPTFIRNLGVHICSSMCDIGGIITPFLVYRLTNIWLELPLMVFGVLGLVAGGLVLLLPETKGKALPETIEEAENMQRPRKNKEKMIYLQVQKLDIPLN
# OCT2 (rOCT2) = target: T3, OCT2 (rOCT2) (Rattus norvegicus, UniProt Q9R0W2); test: inhibition of TEA uptake in HEK293 cells overexpressing rOCT2
# T3 construct: gene Slc22a2
# T3 sequence (Q9R0W2 1-555): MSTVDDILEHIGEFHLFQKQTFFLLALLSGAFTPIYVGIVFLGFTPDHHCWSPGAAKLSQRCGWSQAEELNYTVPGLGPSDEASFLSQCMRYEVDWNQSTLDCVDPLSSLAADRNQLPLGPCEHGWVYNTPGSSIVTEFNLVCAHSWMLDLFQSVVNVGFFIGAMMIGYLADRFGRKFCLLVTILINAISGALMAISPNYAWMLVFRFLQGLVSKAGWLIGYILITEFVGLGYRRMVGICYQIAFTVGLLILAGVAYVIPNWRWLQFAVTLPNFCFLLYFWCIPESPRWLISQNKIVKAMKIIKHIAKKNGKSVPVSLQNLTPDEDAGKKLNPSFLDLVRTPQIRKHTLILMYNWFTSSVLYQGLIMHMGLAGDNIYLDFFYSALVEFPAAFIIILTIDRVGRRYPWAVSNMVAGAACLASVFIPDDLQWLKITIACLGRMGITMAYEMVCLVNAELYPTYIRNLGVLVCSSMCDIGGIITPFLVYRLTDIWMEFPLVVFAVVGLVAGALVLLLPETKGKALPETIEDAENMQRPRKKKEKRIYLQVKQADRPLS
# OCT2 (hOCT2) [3] = target: T2, OCT2 (hOCT2); test: inhibition of ASP uptake in Hela cells overexpressing hOCT2 ([…] in HEK293 cells)
# OCT2 (mOCT2) [4] = target: T1, OCT2 (mOCT2); test: inhibition of TEA, oxaliplatin and ASP uptake in HEK293 cells overexpressing mOCT2; reversible on washout
Compound,fluorescent substrate uptake in cells overexpressing mOCT2; uptake impaired in O (OCT2 (mOCT2) [1]),fluorescent substrate uptake in HEK293 and Hela cells overexpressing hOCT2 (OCT2 (hOCT2) [2]),inhibition of TEA uptake in HEK293 cells overexpressing rOCT2 (OCT2 (rOCT2)),IC50 (OCT2 (hOCT2) [3]) [µM],"inhibition of TEA, oxaliplatin and ASP uptake in HEK293 cells overexpressing mOC (OCT2 (mOCT2) [4])"
CN(C)c1ccc(C=Cc2cc[n+](C)cc2)cc1 [4-(4-(dimethylamino)styryl)-N-methylpyridinium iodide],ASP was taken up in OCT2-proficient cells and uptake was significantly impaired under OCT2-deficient conditions,Concentration-dependent inhibition of OCT2-dependent ASP transport by duloxetine in HEK293 and Hela cells overexpressing hOCT2,,,
CNCC[C@H](Oc1cccc2ccccc12)c1cccs1 [duloxetine],,,"These studies confirmed that duloxetine inhibits the transport of TEA by mouse, rat, and human OCT2.",3.98,"These studies confirmed that duloxetine inhibits the transport of TEA by mouse, rat, and human OCT2."
